Columns and labels:
[1] = molecular target: T1, phosphorylated ERBB2 (pERBB2) (Homo sapiens, UniProt P04626); assay: Detection of phosphorylated ERBB2 (pERBB2) by ELISA in BT-474 cells; type: cell-based; details: four hours incubation
T1 construct: endogenous in cells; host or cells: BT-474
Method: BT-474 cells were seeded into a 96-well at 2.0*10^4 cells/100 μl/well.
Compounds were dissolved and serially diluted in DMSO. The compounds were then were added, mixed, and incubated for four hours at 37° C., 5% CO2. Compounds were added using four-fold dilutions at final concentrations ranging from 10 μM to 0.01 nM.
Following the four hour incubation with compounds, cell lysates were prepared.
Plates were centrifuged for 5 min at 3000 RPM, and supernatant was removed from each well. Cells were washed 3 times by resuspension in 150 μl PBS, followed by centrifugation and removal of the supernatant, as above. […] Cells were incubated with lysis buffer for 1 hour at 4° C., and then stored at −80° C.
Enzyme-linked immunosorbent assays (ELISA) were performed to measure phosphorylated ERBB2 levels. […] The next day, plates were washed with PBS+0.05% Tween20 (PBST). 150 μl of 5% BSA blocking solution was added for 1 hour at room temperature, with shaking. Plates were washed with PBST. Cell lysates were thawed and 100 μl of lysate was added to the ELISA plate. The plates were incubated for 2 hours at room temperature, with shaking. […] Plates were incubated for 1 hour at room temperature, with shaking. Plates were then washed with PBST, and 100 μl TMB substrate solution (R&D Systems, cat #DY999) was added. Plate were incubated in the dark for 20 minutes at room temperature. 50 μl of Stop solution (R&D Systems, cat #DY994) (50 μl) was added to each well and mixed.
Optical density at 450 nm was read on an EnSpire plate reader (Perkin Elmer). The remaining kinase activity by calculated using the following formula: % Relative activity=100×(A450sample−A450LC)/(A450HC−A450LC). The low and high control values (“LC” and “HC”) were generated from lysate from wells without cells or with cells treated with 0.1% DMSO, respectively.

[2] = molecular target: Ba/F3 ERBB2 A775_G776insYVMA (Homo sapiens, UniProt P04626, DUP772-775, cells depend on it); assay: Cell viability assay, Ba/F3 ERBB2 A775_G776insYVMA; type: cell-based, mouse; details: Ba/F3 ERBB2 YVMA cells, cell viability, 72 hours, CellTiter Glo; Table B5; read-out: Ba/F3 ERBB2 YVMA, IC50
Method: Cells were treated with compounds, and cell viability was measured as a metric of kinase inhibition.
The Ba/F3 cell line is IL-3-dependent mouse cell line derived from the C3H mouse strain. Ba/F3 cell lines were engineered to express human ERBB2 or EGFR kinases, rendering the cells IL-3 independent. The lines were generated via retroviral transduction utilizing a Moloney murine leukemia virus (MMLV) promoter, and constructs are stably integrated into the cell genome. The sequences of the ERBB2 and EGFR genes used were NCBI Reference Sequences NM_004448.3 and NM_005228.3, respectively.
Similarly, Ba/F3 cell lines engineered to express EGFR, ERBB2, or ERBB2 mutants were grown, harvested, counted and seeded at 3000 cells per well in 96-well plates. A subset of wells contained media only (low control, “LC”).
Table B1 provides the growth media and number of cells seeded per well for the each cell line.
Plates were placed in a 37° C., 5% CO2 incubator for 72 hours. Plates were then removed from the incubator and equilibrated for 15 minutes at room temperature. 40 μl of CellTiter Glo reagent (Promega) was added to measure the relative level of metabolically active cells by quantifying intracellular ATP concentrations. Plates were incubated for 30 minutes at room temperature, and luminescence was measured. […] Graphical curves were fitted using a nonlinear regression model with a sigmoidal dose response.

[3] = molecular target: T2, phosphorylated EGFR (pEGFR) (Homo sapiens, UniProt P00533); assay: Detection of phosphorylated EGFR (pEGFR) in EGF-stimulated A431 cells; type: cell-based; details: A431 cells (10% FBS), 4 hours incubation, EGF 30 ng/mL 10 minutes, AlphaLISA
T2 construct: performed to measure phosphorylated EGFR levels using A431 cells (10% FBS); endogenous in cells; host or cells: A431
Method: Enzyme-linked immunosorbent assays (ELISA) were performed to measure phosphorylated EGFR levels using A431 cells (10% FBS). A431 (1.0*10^4 cells/40 μl/well) cells were seeded in 384 well. Compounds were dissolved in DMSO, serially diluted in DMSO and then were added, mixed, and incubated for 4 hours at 37° C., 5% CO2. Following the 4-hours incubation, cells were stimulated for 10 minutes with EGF (Invitrogen, cat #PHG0311) at a final concentration of 30 ng/mL in the incubator. The media was aspirated and cells were lysed in 10 μL lysis buffer with protease and phosphatase inhibitors (PerkinElmer, cat #ALSU-PEGFR-A50K). The plates were placed on a shaker for 5 minutes and then incubated for 30 min at 4° C. for complete lysis. The lysate was transferred to an Optiplate (Perkin Elmer, cat #6007290).
Acceptor mix (PerkinElmer, cat #ALSU-PEGFR-A50K) was prepared just before use and 5 μL was dispensed to all the wells, followed by a 1.5-2 h incubation at room temperature in dark. The donor mix (PerkinElmer, cat #ALSU-PEGFR-A50K) was prepared under low light conditions prior to use and […] of donor mix was added to all the wells under subdued lighting or green filters. The plates were placed on a shaker for 5 min, sealed, and incubated overnight at room temperature in dark. Plates were read on the Envision (PerkinElmer) using standard AlphaLISA settings.
The percentage of inhibition on EGFR phosphorylation was calculated following equation: % Inhibition=100×(LumHC−LumSample)/(LumHC−LumLC). The low and high controls (LC/HC) are generated from lysate from wells with cells treated with DMSO or […] Staurosporine (BioAustralis, cat #BIA-S1086), […]. IC50 values were calculated by fitting the Curve using XLfit (v5.3.1.3), equation 201: Y=Bottom+(Top−Bottom)/(1+10^((Log IC50−X)*HillSlope)).

T2 sequence (P00533 25-1210): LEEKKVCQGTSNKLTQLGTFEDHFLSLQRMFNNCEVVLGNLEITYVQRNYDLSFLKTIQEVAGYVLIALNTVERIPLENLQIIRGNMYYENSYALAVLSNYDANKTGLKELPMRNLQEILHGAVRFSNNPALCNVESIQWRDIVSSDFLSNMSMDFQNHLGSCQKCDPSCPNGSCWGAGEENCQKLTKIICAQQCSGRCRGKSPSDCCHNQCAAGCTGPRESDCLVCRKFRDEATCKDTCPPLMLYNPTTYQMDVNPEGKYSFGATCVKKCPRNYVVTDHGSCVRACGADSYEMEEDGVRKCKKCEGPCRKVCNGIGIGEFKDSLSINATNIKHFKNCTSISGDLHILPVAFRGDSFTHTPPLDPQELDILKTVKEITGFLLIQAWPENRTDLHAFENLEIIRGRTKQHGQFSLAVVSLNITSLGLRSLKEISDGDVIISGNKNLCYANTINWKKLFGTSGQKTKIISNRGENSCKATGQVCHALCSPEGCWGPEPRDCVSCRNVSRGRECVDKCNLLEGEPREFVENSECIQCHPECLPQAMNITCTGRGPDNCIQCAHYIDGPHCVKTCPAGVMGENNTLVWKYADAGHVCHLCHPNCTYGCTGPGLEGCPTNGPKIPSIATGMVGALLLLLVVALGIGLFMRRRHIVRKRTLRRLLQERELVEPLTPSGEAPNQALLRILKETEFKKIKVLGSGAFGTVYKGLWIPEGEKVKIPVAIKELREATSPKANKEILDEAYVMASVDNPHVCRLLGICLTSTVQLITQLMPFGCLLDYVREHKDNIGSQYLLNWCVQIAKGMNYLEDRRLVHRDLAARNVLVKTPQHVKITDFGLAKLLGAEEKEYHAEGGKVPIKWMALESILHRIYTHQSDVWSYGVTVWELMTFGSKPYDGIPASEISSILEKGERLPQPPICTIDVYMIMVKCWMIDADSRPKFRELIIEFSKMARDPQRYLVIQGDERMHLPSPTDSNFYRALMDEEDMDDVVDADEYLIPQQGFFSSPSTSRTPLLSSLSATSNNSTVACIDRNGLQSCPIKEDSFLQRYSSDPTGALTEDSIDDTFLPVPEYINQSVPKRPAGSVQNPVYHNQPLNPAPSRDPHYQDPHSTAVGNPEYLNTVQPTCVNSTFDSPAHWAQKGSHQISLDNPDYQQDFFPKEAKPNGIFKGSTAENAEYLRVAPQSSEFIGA
T1 sequence (P04626 23-1255): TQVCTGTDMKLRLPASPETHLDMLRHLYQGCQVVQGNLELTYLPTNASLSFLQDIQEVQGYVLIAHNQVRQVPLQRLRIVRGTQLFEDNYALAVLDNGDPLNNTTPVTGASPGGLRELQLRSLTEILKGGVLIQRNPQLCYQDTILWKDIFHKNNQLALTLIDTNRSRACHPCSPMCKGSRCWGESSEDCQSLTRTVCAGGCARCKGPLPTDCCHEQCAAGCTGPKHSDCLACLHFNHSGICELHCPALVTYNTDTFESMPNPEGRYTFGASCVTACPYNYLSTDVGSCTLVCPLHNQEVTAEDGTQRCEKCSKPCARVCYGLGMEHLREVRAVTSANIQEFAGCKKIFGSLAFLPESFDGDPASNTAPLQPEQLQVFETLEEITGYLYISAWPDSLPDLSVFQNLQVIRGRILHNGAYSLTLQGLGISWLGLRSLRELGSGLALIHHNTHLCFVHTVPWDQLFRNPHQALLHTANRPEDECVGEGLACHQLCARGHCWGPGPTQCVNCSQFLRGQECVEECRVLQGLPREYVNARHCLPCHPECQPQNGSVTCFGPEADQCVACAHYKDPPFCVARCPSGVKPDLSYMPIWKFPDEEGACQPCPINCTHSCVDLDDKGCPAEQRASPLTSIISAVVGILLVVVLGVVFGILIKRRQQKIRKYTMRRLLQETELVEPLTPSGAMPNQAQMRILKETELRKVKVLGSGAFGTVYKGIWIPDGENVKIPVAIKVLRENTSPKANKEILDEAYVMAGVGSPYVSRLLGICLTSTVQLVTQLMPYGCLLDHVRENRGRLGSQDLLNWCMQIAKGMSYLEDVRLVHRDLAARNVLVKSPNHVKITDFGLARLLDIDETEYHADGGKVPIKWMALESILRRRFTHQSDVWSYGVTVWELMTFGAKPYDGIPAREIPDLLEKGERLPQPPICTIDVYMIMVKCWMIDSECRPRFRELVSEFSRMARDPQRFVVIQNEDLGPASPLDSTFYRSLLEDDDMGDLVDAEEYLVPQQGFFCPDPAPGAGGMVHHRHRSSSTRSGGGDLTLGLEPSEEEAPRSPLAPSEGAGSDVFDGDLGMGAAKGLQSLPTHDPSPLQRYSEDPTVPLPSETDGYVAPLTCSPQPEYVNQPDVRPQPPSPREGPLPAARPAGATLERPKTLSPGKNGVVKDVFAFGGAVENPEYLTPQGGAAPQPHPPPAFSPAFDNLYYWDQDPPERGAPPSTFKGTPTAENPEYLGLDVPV
Chain of Ba/F3 ERBB2 A775_G776insYVMA (P04626 with tags, fused parts or gaps DUP772-775): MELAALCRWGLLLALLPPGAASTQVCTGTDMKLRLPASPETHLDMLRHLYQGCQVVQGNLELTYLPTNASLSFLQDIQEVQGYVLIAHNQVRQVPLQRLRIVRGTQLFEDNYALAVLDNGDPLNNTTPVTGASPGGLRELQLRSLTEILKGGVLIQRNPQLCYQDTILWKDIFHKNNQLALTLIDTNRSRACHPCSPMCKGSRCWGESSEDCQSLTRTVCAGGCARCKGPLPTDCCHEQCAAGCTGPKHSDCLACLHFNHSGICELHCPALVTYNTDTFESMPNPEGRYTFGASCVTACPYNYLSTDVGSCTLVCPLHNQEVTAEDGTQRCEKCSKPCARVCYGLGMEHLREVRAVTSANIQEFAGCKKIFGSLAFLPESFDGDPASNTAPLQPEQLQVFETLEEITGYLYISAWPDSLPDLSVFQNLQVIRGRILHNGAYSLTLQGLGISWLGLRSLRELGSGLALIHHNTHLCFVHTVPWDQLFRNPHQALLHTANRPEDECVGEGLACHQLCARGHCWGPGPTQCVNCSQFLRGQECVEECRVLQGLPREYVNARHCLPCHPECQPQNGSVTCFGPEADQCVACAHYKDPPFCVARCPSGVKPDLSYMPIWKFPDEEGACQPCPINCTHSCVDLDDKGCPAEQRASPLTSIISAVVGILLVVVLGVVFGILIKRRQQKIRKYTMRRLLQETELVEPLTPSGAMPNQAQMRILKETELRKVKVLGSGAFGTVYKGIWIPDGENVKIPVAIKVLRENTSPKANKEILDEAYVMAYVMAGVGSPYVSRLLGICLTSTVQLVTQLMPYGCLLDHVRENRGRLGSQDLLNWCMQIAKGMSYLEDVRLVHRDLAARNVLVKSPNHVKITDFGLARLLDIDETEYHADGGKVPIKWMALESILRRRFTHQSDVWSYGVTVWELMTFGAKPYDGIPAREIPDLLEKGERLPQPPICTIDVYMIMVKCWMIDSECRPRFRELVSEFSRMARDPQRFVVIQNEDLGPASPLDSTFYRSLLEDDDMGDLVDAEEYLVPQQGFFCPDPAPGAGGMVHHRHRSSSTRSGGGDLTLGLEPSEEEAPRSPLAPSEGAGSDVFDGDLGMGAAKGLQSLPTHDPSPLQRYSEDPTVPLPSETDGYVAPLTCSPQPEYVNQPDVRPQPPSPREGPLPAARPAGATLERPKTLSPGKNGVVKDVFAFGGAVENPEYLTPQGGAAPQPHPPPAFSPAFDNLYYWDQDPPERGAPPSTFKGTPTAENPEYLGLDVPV

Structure (SMILES) | IC50 [1] [nM] | GI50 [2] [nM] | IC50 [3] [nM]
Cc1cc(Nc2ncnc3cnc(N4CC(C)C(=CCN(C)C)C4=O)cc23)ccc1Oc1ccc2c(c1)ncn2C (single isomer, unassigned) [Example S97, Enantiomer #1, 3-[2-(dimethylamino)ethylidene]-4-methyl-1-[4-({3-methyl-4-[(1-methyl-1,3-benzodiazol-5-yl)oxy]phenyl}amino)pyrido[3,4-d]pyrimidin-6-yl]pyrrolidin-2-one] | 41.3 | 45.6 | > 10000
Cc1cc(Nc2ncnc3cnc(N4CC(C)C(=CCN(C)C)C4=O)cc23)ccc1Oc1ccc2c(c1)ncn2C (single isomer, unassigned) [Example S97, Enantiomer #2, 3-[2-(dimethylamino)ethylidene]-4-methyl-1-[4-({3-methyl-4-[(1-methyl-1,3-benzodiazol-5-yl)oxy]phenyl}amino)pyrido[3,4-d]pyrimidin-6-yl]pyrrolidin-2-one] | 21 | 4.12 | 490
Cc1cc(Nc2ncnc3ccc(N4CC(C)C(=CCN(C)C)C4=O)nc23)ccc1Oc1ccn2ncnc2c1 (single isomer, unassigned) [Example S98, Enantiomer #1, 3-[2-(dimethylamino)ethylidene]-4-methyl-1-{4-[(3-methyl-4-{[1,2,4]triazolo[1,5-a]pyridin-7-yloxy}phenyl)amino]pyrido[3,2-d]pyrimidin-6-yl}pyrrolidin-2-one] | 11.9 | 1.13 | 158
Cc1cc(Nc2ncnc3ccc(N4CC(C)C(=CCN(C)C)C4=O)nc23)ccc1Oc1ccn2ncnc2c1 (single isomer, unassigned) [Example S98, Enantiomer #2, 3-[2-(dimethylamino)ethylidene]-4-methyl-1-{4-[(3-methyl-4-{[1,2,4]triazolo[1,5-a]pyridin-7-yloxy}phenyl)amino]pyrido[3,2-d]pyrimidin-6-yl}pyrrolidin-2-one] | 26.4 | 71.2 | > 10000
Cc1cc(Nc2ncnc3ccc(N4C(=O)C(=CCN(C)C)C5CC54)nc23)ccc1Oc1ccn2ncnc2c1 (single isomer, unassigned) [Example S108, Enantiomer #1, 4-[2-(dimethylamino)ethylidene]-2-{4-[(3-methyl-4-{[1,2,4]triazolo[1,5-a]pyridin-7-yloxy}phenyl)amino]pyrido[3,2-d]pyrimidin-6-yl}-2-azabicyclo[3.1.0]hexan-3-one] | 19.1 | 54 | 6680
Cc1cc(Nc2ncnc3ccc(N4C(=O)C(=CCN(C)C)C5CC54)nc23)ccc1Oc1ccn2ncnc2c1 (single isomer, unassigned) [Example S108, Enantiomer #2, 4-[2-(dimethylamino)ethylidene]-2-{4-[(3-methyl-4-{[1,2,4]triazolo[1,5-a]pyridin-7-yloxy}phenyl)amino]pyrido[3,2-d]pyrimidin-6-yl}-2-azabicyclo[3.1.0]hexan-3-one] | 12.7 | 4.88 | 175
C=C1C(=O)N(c2ccc3ncnc(Nc4ccc(Oc5ccn6ncnc6c5)c(C)c4)c3c2)CC1COCCN(C)C (single isomer, unassigned) [Example S111, Enantiomer #1, 1-(4-(4-([1,2,4]triazolo[1,5-a]pyridin-7-yloxy)-3-methylphenylamino)quinazolin-6-yl)-4-((2-(dimethylamino)ethoxy)methyl)-3-methylenepyrrolidin-2-one] | 16.6 | 18.4 | 274
C=C1C(=O)N(c2ccc3ncnc(Nc4ccc(Oc5ccn6ncnc6c5)c(C)c4)c3c2)CC1COCCN(C)C (single isomer, unassigned) [Example S111, Enantiomer #2, 1-(4-(4-([1,2,4]triazolo[1,5-a]pyridin-7-yloxy)-3-methylphenylamino)quinazolin-6-yl)-4-((2-(dimethylamino)ethoxy)methyl)-3-methylenepyrrolidin-2-one] | 18.2 | 10.8 | 33.7
Cc1cc(Nc2ncnc3cnc(N4CC(C)/C(=C\CN(C)C)C4=O)cc23)c(F)cc1Oc1ccc2c(c1)nnn2C (single isomer, unassigned) [Example S115, Enantiomer #1, (3E)-3-[2-(dimethylamino)ethylidene]-1-[4-({2-fluoro-5-methyl-4-[(1-methyl-1,2,3-benzotriazol-5-yl)oxy]phenyl}amino)pyrido[3,4-d]pyrimidin-6-yl]-4-methylpyrrolidin-2-one] | 32 | 11.3 | 1000
Cc1cc(Nc2ncnc3cnc(N4CC(C)/C(=C\CN(C)C)C4=O)cc23)c(F)cc1Oc1ccc2c(c1)nnn2C (single isomer, unassigned) [Example S115, Enantiomer #2, (3E)-3-[2-(dimethylamino)ethylidene]-1-[4-({2-fluoro-5-methyl-4-[(1-methyl-1,2,3-benzotriazol-5-yl)oxy]phenyl}amino)pyrido[3,4-d]pyrimidin-6-yl]-4-methylpyrrolidin-2-one] | 273 | 286 | > 10000
CC1CN(c2cc3c(Nc4ccc(Oc5ccc6c(c5)nnn6C)c(F)c4)ncnc3cn2)C(=O)/C1=C/CN(C)C (single isomer, unassigned) [Example S117, Enantiomer #1, (E)-3-(2-(dimethylamino)ethylidene)-1-(4-((3-fluoro-4-((1-methyl-1H-benzo[d][1,2,3]triazol-5-yl)oxy)phenyl)amino)pyrido[3,4-d]pyrimidin-6-yl)-4-methylpyrrolidin-2-one] | 40 | 12 | 968
CC1CN(c2cc3c(Nc4ccc(Oc5ccc6c(c5)nnn6C)c(F)c4)ncnc3cn2)C(=O)/C1=C/CN(C)C (single isomer, unassigned) [Example S117, Enantiomer #2, (E)-3-(2-(dimethylamino)ethylidene)-1-(4-((3-fluoro-4-((1-methyl-1H-benzo[d][1,2,3]triazol-5-yl)oxy)phenyl)amino)pyrido[3,4-d]pyrimidin-6-yl)-4-methylpyrrolidin-2-one] | 589 | > 500 | > 10000

Reference: patent publication US20240116921A1, “LACTAM (HETERO)[…] DERIVATIVES AS INHIBITORS OF ERBB2” (EnLiven Therapeutics, Inc., priority 2020, published 2024)
